# Test system: glucokinase
# Experiment: Liver specificity: activity in isolated hepatocytes (Glucokinase Activity Assay (II)) compared to Ins-1 cells (Glucokinase Activity Assay (III))
# Assay type: cell-based
# Conditions: Glucokinase Activity Assay (II) (isolated hepatocytes) compared to Glucokinase Activity Assay (III) (Ins-1 cells)
# Excerpt: For the purpose of describing this invention, the potential liver selectivity of a glucokinase activator may be assayed by comparison of the results obtained in response to the glucokinase activator in isolated hepatocytes and the results obtained in response to the glucokinase activator in Ins-1 cells. […] The activity of the glucokinase activator in Glucokinase Activity Assay (II) (hepatocytes) may for instance be at least 1.1 fold higher, such as at least 1.2 fold higher, for instance at least 1.3 fold higher, such as at least 1.4 fold higher, for instance 1.5 fold higher, such as at least 1.6 fold higher, for instance at least 1.7 fold higher, such as at least 1.8 fold higher, for instance at least 1.9 fold higher, such as at least 2.0 fold higher, for instance at least a 3.0 fold higher, such as at least a 4.0 fold higher, for instance at least 5.0 fold higher, such as at least 10 fold higher than the activity of the glucokinase activator in Glucokinase Activity Assay (III) (Ins-1 cells). Alternatively, the glucokinase activator may show no activity in the Ins-1 cells measured as described in the Glucokinase Activity Assay (III), while showing a significant activity in hepatocytes measured as described in the Glucokinase Activity Assay (II).
row,SMILES,liver specific glucokinase activator (significantly higher activity in isolated hepatocytes than in Ins-1 cells)
1,COc1cccc(F)c1Oc1ccc(F)cc1NC(=O)Nc1nc(CC(=O)NCCN2CCOCC2)cs1 [2-(2-{3-[5-fluoro-2-(2-fluoro-6-methoxyphenoxy)phenyl]ureido}thiazol-4-yl)-N-(2-morpholin-4-ylethyl)acetamide],liver specific glucokinase activators
2,"CCOC(=O)c1csc(NC(=O)Nc2cc(F)ccc2Oc2cccc(OC)c2OC)n1 [2-{3-[2-(2,3-dimethoxyphenoxy)-5-fluorophenyl]ureido}thiazole-4-carboxylic acid ethyl ester]",liver specific glucokinase activators
3,"COc1cccc(Oc2ccc(F)cc2NC(=O)Nc2nc(C(=O)O)cs2)c1OC [2-{3-[2-(2,3-dimethoxyphenoxy)-5-fluorophenyl]ureido}thiazole-4-carboxylic acid]",liver specific glucokinase activators
4,"CCOC(=O)Cc1csc(NC(=O)Nc2cc(F)ccc2Oc2cccc(OC)c2OC)n1 [(2-{3-[2-(2,3-dimethoxyphenoxy)-5-fluorophenyl]ureido}thiazol-4-yl)acetic acid ethyl ester]",liver specific glucokinase activators
5,COc1cccc(F)c1Oc1ccc(F)cc1NC(=O)Nc1nc(CC(=O)O)cs1 [(2-{3-[5-fluoro-2-(2-fluoro-6-methoxyphenoxy)phenyl]ureido}thiazol-4-yl)acetic acid],liver specific glucokinase activators
6,COc1cccc(F)c1Oc1ccc(F)cc1NC(=O)Nc1nc(CC(=O)NCC(=O)O)cs1 [[2-(2-{3-[5-fluoro-2-(2-fluoro-6-methoxyphenoxy)phenyl]ureido}thiazol-4-yl)acetylamino]acetic acid],liver specific glucokinase activators
7,Cc1ccc(NC(=O)Nc2nc(CC(=O)O)cs2)c(C(=O)C2CCCC2)c1 [{2-[3-(2-cyclopentanecarbonyl-4-methyl-phenyl)-ureido]-thiazol-4-yl}-acetic acid],liver specific glucokinase activators
8,Cc1ccc(NC(=O)Nc2nc(CC(=O)O)cs2)c(OCC(C)C)c1 [{2-[3-(4-methyl-2-[2-methylpropoxy]phenyl)-ureido]-thiazol-4-yl}-acetic acid],liver specific glucokinase activators

# From US7897628B2, “Aryl carbonyl derivatives as therapeutic agents” (Novo Nordisk A/S, priority 2002, dated 2011)
